From paper PMC9238401, “Peptide Conjugates Derived from flg15, Pep13, and PIP1 That Are Active against Plant-Pathogenic Bacteria and Trigger Plant Defense Responses” (Applied and Environmental Microbiology, 2022)
Non-standard residues stand in square brackets, D forms with d. Residues, ends and D or L forms follow the SMILES beside them. *: point of attachment. Butyryl = CCCC(=O)*

What was measured:
tobacco leaves = assay: Effect of peptide infiltration on tobacco leaves (phytotoxicity); format: in vivo
How it was run: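 Phytotoxicity was scored as necrotic lesion diameter 48 h post-infiltration. Each peptide was infiltrated at 50, 150 or 250 μM into fully expanded tobacco leaf mesophyll, on ≥3 leaves from different plants, alongside water and same-molar melittin controls.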

horse erythrocytes = settings: TRIS buffer pH 7.2, 1 h, 37°C, absorbance 540 nm, relative to melittin 100 μM, ± confidence interval (α = 0.05)
How it was run: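 Hemolysis measured as absorbance at 540 nm of supernatant, expressed as percent of melittin-lysed control after buffer subtraction. Compound solutions (750, 500, 300, 100 μM, Tris-buffered saline pH 7.2) were combined 1:1 with washed horse red cells for 1 h, 37°C, shaking.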

[1] = system: Xanthomonas arboricola pv. pruni CFBP5563; assay: In vitro growth inhibition (MIC); format: cell-based; settings: TSB, 25°C, 48 h, OD 600 nm (Bioscreen C), three replicates, experiment repeated twice; MIC given as range
How it was run: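 Strains were grown 24 h at 25°C on agar, then suspended in sterile water at 10^8 CFU mL^−1 and mixed with peptide dilutions in Trypticase soy broth. Plates were incubated at 25°C with shaking and OD600 read hourly for 48 h. MIC is the lowest concentration with no growth at 48 h.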

[2] = 100 μL infiltrated into mesophyll, lesion diameter 48 h after infiltration, at least three leaves, ± confidence interval (α = 0.05)

Row | Compound | Size of the lesions in infiltrated tobacco leaves at 50 μM (tobacco leaves; [2]) | Size of the lesions in infiltrated tobacco leaves at 150 μM (tobacco leaves; [2]) | Size of the lesions in infiltrated tobacco leaves at 250 μM (tobacco leaves; [2]) | Percent hemolysis at 50 μM (horse erythrocytes) | Percent hemolysis at 150 μM (horse erythrocytes) | Percent hemolysis at 250 μM (horse erythrocytes) | Percent hemolysis at 375 μM (horse erythrocytes) | MIC, Xap [1] | Size of the lesions in infiltrated tobacco leaves at 50 μM (tobacco leaves; in vivo) | Size of the lesions in infiltrated tobacco leaves at 150 μM (tobacco leaves; in vivo) | Size of the lesions in infiltrated tobacco leaves at 250 μM (tobacco leaves; in vivo)
1 | CCCC(=O)NCCCC[C@H](NC(=O)[C@H](CCCCN)NC(=O)[C@H](CC(C)C)NC(=O)[C@@H](NC(=O)[C@H](CCCCN)NC(=O)[C@H](CCCCN)NC(=O)[C@@H](Cc1ccccc1)NC(=O)[C@H](CC(C)C)NC(=O)[C@H](CCCCN)NC(=O)[C@H](CCCCN)NC(=O)[C@H](Cc1c[nH]cn1)NC(=O)[C@@H](NC(=O)[C@H](Cc1c[nH]cn1)NC(=O)[C@@H](NC(=O)CNC(=O)[C@H](Cc1ccc(O)cc1)NC(C)=O)[C@@H](C)CC)[C@@H](C)O)[C@@H](C)CC)C(=O)N[C@@H](CC(C)C)C(N)=O [PIP1-BP475] (Ac-YGIHTHKKL[dF]KKILKK(Butyryl)L-NH2) | 0.47 ± 0.13 cm | 1.03 ± 0.06 cm | 1.17 ± 0.06 cm | 4 ± 0.4% | 11 ± 0.5% | 18 ± 0.1% | 24 ± 0.5% | < 0.8 µM | – | – | –
2 | CCCC(=O)NCCCC[C@H](NC(=O)[C@H](CCCCN)NC(=O)[C@H](CC(C)C)NC(=O)[C@@H](NC(=O)[C@H](CCCCN)NC(=O)[C@H](CCCCN)NC(=O)[C@@H](Cc1ccccc1)NC(=O)[C@H](CC(C)C)NC(=O)[C@H](CCCCN)NC(=O)[C@H](CCCCN)NC(=O)[C@H](C)NC(=O)[C@@H](NC(=O)[C@H](CCC(N)=O)NC(=O)[C@H](CC(C)C)NC(=O)CNC(=O)[C@H](C)NC(=O)[C@H](C)NC(=O)[C@H](CC(=O)O)NC(=O)[C@H](CC(=O)O)NC(=O)[C@H](CCCCN)NC(=O)[C@H](C)NC(=O)[C@H](CO)NC(=O)[C@H](CC(N)=O)NC(=O)[C@@H](NC(=O)[C@H](CCCNC(=N)N)NC(C)=O)[C@@H](C)CC)[C@@H](C)CC)[C@@H](C)CC)C(=O)N[C@@H](CC(C)C)C(N)=O [flg15-BP475] (Ac-RINSAKDDAAGLQIAKKL[dF]KKILKK(Butyryl)L-NH2) | 0.60 ± 0 cm | 1.20 ± 0 cm | 1.37 ± 0.06 cm | 7 ± 0.6% | 28 ± 2.3% | 43 ± 2.7% | 46 ± 3.6% | < 0.8 µM | – | – | –
3 | RINSAKDDAAGLQIA-OH [flg15, plant defense elicitor peptide, 15 amino acids of the N-terminal conserved domain of bacterial flagellin; monomer] | 0 ± 0 cm | 0 ± 0 cm | 0 ± 0 cm | 0 ± 0% | 0 ± 0% | 0 ± 0% | 0 ± 0% | > 100 µM | – | – | –
4 | YGIHTH-NH2 [PIP1, plant defense elicitor peptide identified through combinatorial chemistry; monomer] | – | – | – | 4 ± 0.8% | 0.5 ± 0.3% | 0 ± 2% | 1 ± 0.1% | > 50 µM | 0 ± 0 cm | 0 ± 0 cm | 0 ± 0 cm
